According to PubChem BioAssay AID1328 (NMMLSC, 2008):
Active and inactive are the calls of the source. No rule for the calls is given here.

Each compound was assayed against Apoptosis regulator Bcl-2 (Homo sapiens) (UniProt P10415) (assay: Bim-Bcl-2 binding modulators, biochemical, multiplexed, high-throughput, human Bcl-2 (AID 1328)). Settings: Bead-based flow cytometry, fluorescent Bim peptide-Bcl-2 binding.
Sequence of Apoptosis regulator Bcl-2 (Homo sapiens) (P10415 whole entry, looked up): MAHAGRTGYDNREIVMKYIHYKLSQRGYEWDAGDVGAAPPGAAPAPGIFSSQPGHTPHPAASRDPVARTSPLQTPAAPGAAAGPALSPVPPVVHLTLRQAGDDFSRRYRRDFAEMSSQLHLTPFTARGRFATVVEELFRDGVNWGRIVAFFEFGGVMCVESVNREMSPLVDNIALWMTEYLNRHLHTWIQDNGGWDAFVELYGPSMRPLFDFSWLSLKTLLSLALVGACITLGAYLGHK

EC50, inactive:
CCC(=O)N(CC)C1=C(O)c2ccccc2C(=O)C1=O
COc1cc(/C=N/Nc2nn3cnnc3c3ccccc23)ccc1O
O=[N+]([O-])c1ccc(N/N=C/c2ccc(O)c(O)c2O)c(S(=O)(=O)N2CCOCC2)c1
Clc1ccc2c(N/N=C/c3ccccc3Br)ccnc2c1
CN(C)[C@@H]1C(=O)C(C(=O)NCN2CCCC2)=C(O)[C@@]2(O)C(=O)C3=C(O)c4c(O)cccc4[C@@](C)(O)C3CC12 (stereo not given in full)
